These are literature values, as cited in US9314419B2, “Oral care compositions with a reduced bitter taste perception” (The Procter & Gamble Company, priority 2014, dated 2016).

The conditions of the data set: concentration level where the cooling effect can be clearly recognized.
As to `CC(C)[C@@H]1CC[C@@H](C)C[C@@H]1O` [d-neomenthol], the cooling threshold entry is reported as “about 25,000 ppb”.

Take `CC(C)[C@@H]1CC[C@@H](C)C[C@@H]1O` [Example 1-neomenthol, 1-neomenthol]: the cooling threshold result is recorded as “about 3,000 ppb”.

As for `CC(C)[C@@H]1CC[C@@H](C)C[C@H]1O` [L-menthol], the cooling threshold result was “about 800 ppb”.
